The structures appear in SMILES notation. Where two headings read alike, the source gives them in different places. Where only a bound is given, the exact number is not on record here.

In article PMC9318862, “Cytotoxic Effects on Breast Cancer Cell Lines of Chalcones Derived from a Natural Precursor and Their Molecular Docking Analysis” (Molecules, 2022) one finds IC50 and viability data, which are given here for 14 molecules.

Assay [1] has as its system MCF-10F cells. The experiment in a line: Cytotoxic assay, IC50 in non-tumorigenic MCF-10F cells. The class given is cell-based, human. The settings on record: MCF-10F non-tumorigenic cells, mean ± SD, read-out: IC50 Cell Lines MCF-10F. On the procedure: (§1) The cell culture methodology was used with modifications. Three human breast cancer cell lines were used for this study: MCF-7 (ATCC® HTB-22™), ZR-75-1 (ATCC® CRL-1500™), MDA-MB-231 (ATCC® HTB-26™), and the non-tumorigenic MCF-10F (ATCC® CRL-10318™) cell lines. Cells were cultured in specific media according to ATCC recommendations. The incubation condition was established at 37 °C, a complete humid atmosphere, 5% CO2 and 95% O2.
(§2) The cytotoxic effect of the chalcone compounds was assessed in MCF-10F cells in a dose- and time-dependent manner. Cells (1 × 10^4 and 4 × 10^4) cultured under normoxic conditions were seeded in 24-well plates in quadruplicate and incubated for 4 days until 70% confluence. After this incubation period, cells were exposed to concentrations of the synthesized compounds dissolved in ethanol (50%) at concentrations ranging from 0 to 96.8 µg/mL (dissolved in 0.5% DMSO). Doxorubicin was used as the control drug, and for all data a p < 0.05 value was considered statistically significant. Cell viability was assessed using a neutral red uptake assay after 24 h of treatment.

Assay [2] concerns MCF-7 cells. The assay is described as follows: Cytotoxic assay, IC50 in MCF-7 cells. The class given is cell-based. The settings on record: Homo sapiens, MCF7, mean ± SD, read-out: IC50 Cell Lines MCF-7.
Assay [3] relates to ZR-75-1 cells. The experiment in a line: Cytotoxic assay, IC50 in ZR-75-1 cells. The class given is cell-based. Conditions: Homo sapiens, mean ± SD, read-out: IC50 Cell Lines ZR-75-1.
Assay [4] has as its system MDA-MB-231 cells. The assay is described as follows: Cytotoxic assay, IC50 in MDA-MB-231 cells. The settings on record: Homo sapiens, mean ± SD, read-out: IC50 Cell Lines MDA-MB-231. The class given is cell-based. On the procedure: (§3) The cytotoxic activity of all the synthesized chalcones was tested against breast cancer cell lines using an MTT cell proliferation assay. All compounds were tested in vitro at 10 and 100 µM using the cell viability assay in MCF-7 for 24 h in normoxia (Table 1). Firstly, the cytotoxic effect of the chalcone compounds modified in ring B and with an unsubstituted ring A was tested (compounds 3–8). […] Secondly, compounds with modifications in the A and B rings (9–13) were tested.
as §1, §2

The test system of assay [5] is MCF-7 cells. The experiment in a line: Cell viability of MCF-7 cells after treatment at 10 and 100 µM (MTT cell proliferation assay, 24 h, normoxia). The class given is cell-based. The settings on record: Homo sapiens, mean ± SD; for viability at 10 µM: MCF7, 10 µM; for viability at 100 µM: MCF7, 100 µM. On the procedure: as §3
The cell culture methodology was used with modifications. Three human breast cancer cell lines were used for this study: MCF-7 (ATCC® HTB-22™), ZR-75-1 (ATCC® CRL-1500™), MDA-MB-231 (ATCC® HTB-26™), and the non-tumorigenic MCF-10F (ATCC® CRL-10318™) cell lines. Cells were cultured in specific media according to ATCC recommendations. The incubation condition was established at 37 °C, a complete humid atmosphere, 5% CO2 and 95% […]. […]
(Tetrazolium dyes change colour on reduction, which living cells bring about.)

Assay [6] deals with MCF-7 cells. Details: method as in PMID 27814565. The settings on record: read-out: IC50 on the growth of the MCF-7 cells; cited from earlier work.

For `CC(C)=CCc1cc(C(=O)/C=C/c2ccccc2)ccc1O` [Compound 9], the 50% inhibitory concentration (IC50) (usually the concentration that gives 50% inhibition) is above 80 µM in assay [1] (Homo sapiens, MCF-10F); above 80 µM in assay [2]; above 80 µM in assay [3]; above 80 µM in assay [4]. Moreover, the viability (usually the share of living cells, or the viability signal relative to a control) at 10 µM in assay [5] is 93.8 ± 7.9%. In assay [5], the viability at 100 µM came to 82.5 ± 6.1%.

Regarding `COc1cc(/C=C/C(=O)c2ccccc2)ccc1O` [Compound 6], the IC50 in assay [1] (Homo sapiens, MCF-10F) worked out at 72.6 ± 10.3 µM; in assay [2], 21.6 ± 2.71 µM; in assay [3] it was 43.2 ± 6.58 µM; in assay [4] it was 52 ± 4.53 µM. Further, the viability at 10 µM in assay [5] was 47 ± 4.9%. In addition, the viability at 100 µM in assay [5] was 4.9 ± 0.6%.

For the molecule `COc1cc(OC)c(OC)cc1/C=C/C(=O)c1ccc(O)c(CC=C(C)C)c1` [Compound 13], the IC50 in assay [1] (Homo sapiens, MCF-10F) is 95.1 ± 1.97 µM; in assay [1], 75.1 ± 12 µM; in assay [2], 3.3 ± 0.92 µM; in assay [3] it was 8.75 ± 2.01 µM; in assay [4] it was 18.1 ± 1.65 µM. In addition, in assay [5], the viability at 10 µM came out at 32.4 ± 4.5%. In addition, in assay [5], the viability at 100 µM was found to be 3.1 ± 0.4%.

Consider `CC(=O)c1ccc(O)c(CC=C(C)C)c1` [Compound 1b], for which the IC50 in assay [1] (Homo sapiens, MCF-10F) amounted to 79.5 ± 9.9 µM; in assay [2], 79.4 ± 12.2 µM; in assay [3], 61.6 ± 14.1 µM; in assay [4] it was 74 ± 8.72 µM.

Turning to `COc1cc(OC)c(OC)cc1/C=C/C(=O)c1ccccc1` [Compound 8], the IC50 in assay [1] (Homo sapiens, MCF-10F) is above 80 µM; in assay [2], above 80 µM; in assay [3] it was above 80 µM; in assay [4], above 80 µM. For the same molecule, the viability at 10 µM in assay [5] was 100 ± 12.6%. Besides, the viability at 100 µM in assay [5] turned out to be 94.4 ± 11.6%.

Regarding `CN(C)c1ccc(/C=C/C(=O)c2ccccc2)cc1` [Compound 5], the concentration for half-maximal inhibition (IC50) in assay [1] (Homo sapiens, MCF-10F) is above 80 µM; in assay [2], above 80 µM; in assay [3] it was 76.5 ± 12.6 µM; in assay [4], 79.8 ± 9.31 µM. In assay [5], this molecule gave a viability at 10 µM of 47.6 ± 3.2%. In addition, in assay [5], the viability at 100 µM was 52.4 ± 4.3%.

Turning to `COc1cccc2c1C(=O)c1c(O)c3c(c(O)c1C2=O)C[C@@](O)(C(=O)CO)C[C@@H]3O[C@H]1C[C@H](N)[C@H](O)[C@H](C)O1` [Doxorubicin, reference compound], the IC50 in assay [1] (Homo sapiens, MCF-10F) stood at 83.9 ± 8.99 µM; in assay [2], 111 ± 8.95 µM; in assay [3] it was 79.8 ± 11 µM; in assay [4] it was 47.6 ± 5.74 µM. In assay [5], this molecule came in with a viability at 10 µM of 49.3 ± 2.2%. Besides, the viability at 100 µM in assay [5] worked out at 57.6 ± 2.9%.

For `COc1ccc(/C=C/C(=O)c2ccccc2)cc1` [Compound 4], the IC50 in assay [1] (Homo sapiens), in assay [2], in assay [3] and in assay [4] was above 80 µM in each case. Further, the viability at 10 µM in assay [5] worked out at 74.5 ± 10.3%. For the same molecule, the viability at 100 µM in assay [5] was 55.1 ± 5.1%.

In the case of `C=C(C)C(O)Cc1c(O)ccc(C(=O)/C=C/c2ccc(O)c(CC=C(C)C)c2)c1O` (stereo not shown) [Paratocarpin E], the concentration for half-maximal inhibition (IC50) in assay [6] was 19.6 µM.

Turning to `COc1cc(/C=C/C(=O)c2ccc(O)c(CC=C(C)C)c2)ccc1O` [Compound 12, (E)-1-(4-hydroxy-3-(3-methylbut-2-en-1-yl)phenyl)-3-(4-hydroxy-3-methoxyphenyl)prop-2-en-1-one], the IC50 was 95.8 ± 1.52 µM in assay [1] (Homo sapiens, MCF-10F); 75.8 ± 11.5 µM in assay [1]; 4.19 ± 1.04 µM in assay [2]; 9.4 ± 1.74 µM in assay [3]; 6.12 ± 0.84 µM in assay [4]. Also, the viability at 10 µM in assay [5] is 10.3 ± 0.6%. The viability at 100 µM in assay [5] was 3.6 ± 0.9%.

Regarding `CC(C)=CCc1cc(C(=O)/C=C/c2ccc(N(C)C)cc2)ccc1O` [Compound 11], the 50% inhibitory concentration (IC50) in assay [1] (Homo sapiens, MCF-10F) is 78.4 ± 21.3 µM; in assay [2], above 80 µM; in assay [3] it was 78.2 ± 6.87 µM; in assay [4], 72.3 ± 2.33 µM. In assay [5], this molecule registered a viability at 10 µM of 42 ± 4.3%. Besides, the viability at 100 µM in assay [5] came to 42.4 ± 3.9%.

`O=C(/C=C/c1ccc2c(c1)OCO2)c1ccccc1` [Compound 7]: the concentration for half-maximal inhibition (IC50) was above 80 µM in assay [1] (Homo sapiens, MCF-10F); above 80 µM in assay [2]; above 80 µM in assay [3]; above 80 µM in assay [4]. The molecule further came in with a viability at 10 µM in assay [5] of 43.5 ± 3.4%. The viability at 100 µM in assay [5] was determined as 38.6 ± 4.3%.

`COc1ccc(/C=C/C(=O)c2ccc(O)c(CC=C(C)C)c2)cc1` [Compound 10]: the 50% inhibitory concentration (IC50) in assay [1] (Homo sapiens, MCF-10F) is above 80 µM; in assay [2], above 80 µM; in assay [3], above 80 µM; in assay [4] it was 78 ± 4.34 µM. The same molecule displayed a viability at 10 µM in assay [5] of 73.7 ± 6.7%. The viability at 100 µM in assay [5] was determined as 62.3 ± 7.6%.

As to `O=C(/C=C/c1ccccc1)c1ccccc1` [Compound 3], the 50% inhibitory concentration (IC50) was above 80 µM in assay [1] (Homo sapiens, MCF-10F); above 80 µM in assay [2]; above 80 µM in assay [3]; above 80 µM in assay [4]. In assay [5], this molecule showed a viability at 10 µM of 81.3 ± 9.4%. The molecule also registered a viability at 100 µM in assay [5] of 65.2 ± 5.7%.
